Source: ChEMBL document CHEMBL5154740, “Novel Aurora A and Protein Kinase C (α, β1, β2, and θ) Multitarget Inhibitors: Impact of Selenium Atoms on the Potency and Selectivity” (J Med Chem, 2022)

Tests used:
[1] = molecular target: Protein kinase C beta type (Homo sapiens) (UniProt P05771); assay: Inhibition of PKCbeta2 (unknown origin) at 50 nM by Z'LYTE screening method relative to control
[2] = molecular target: T1, Serine/threonine-protein kinase D3 (Homo sapiens) (UniProt O94806); assay: Inhibition of PKCnu (unknown origin) at 50 nM by Z'LYTE screening method relative to control
T1 sequence (whole entry): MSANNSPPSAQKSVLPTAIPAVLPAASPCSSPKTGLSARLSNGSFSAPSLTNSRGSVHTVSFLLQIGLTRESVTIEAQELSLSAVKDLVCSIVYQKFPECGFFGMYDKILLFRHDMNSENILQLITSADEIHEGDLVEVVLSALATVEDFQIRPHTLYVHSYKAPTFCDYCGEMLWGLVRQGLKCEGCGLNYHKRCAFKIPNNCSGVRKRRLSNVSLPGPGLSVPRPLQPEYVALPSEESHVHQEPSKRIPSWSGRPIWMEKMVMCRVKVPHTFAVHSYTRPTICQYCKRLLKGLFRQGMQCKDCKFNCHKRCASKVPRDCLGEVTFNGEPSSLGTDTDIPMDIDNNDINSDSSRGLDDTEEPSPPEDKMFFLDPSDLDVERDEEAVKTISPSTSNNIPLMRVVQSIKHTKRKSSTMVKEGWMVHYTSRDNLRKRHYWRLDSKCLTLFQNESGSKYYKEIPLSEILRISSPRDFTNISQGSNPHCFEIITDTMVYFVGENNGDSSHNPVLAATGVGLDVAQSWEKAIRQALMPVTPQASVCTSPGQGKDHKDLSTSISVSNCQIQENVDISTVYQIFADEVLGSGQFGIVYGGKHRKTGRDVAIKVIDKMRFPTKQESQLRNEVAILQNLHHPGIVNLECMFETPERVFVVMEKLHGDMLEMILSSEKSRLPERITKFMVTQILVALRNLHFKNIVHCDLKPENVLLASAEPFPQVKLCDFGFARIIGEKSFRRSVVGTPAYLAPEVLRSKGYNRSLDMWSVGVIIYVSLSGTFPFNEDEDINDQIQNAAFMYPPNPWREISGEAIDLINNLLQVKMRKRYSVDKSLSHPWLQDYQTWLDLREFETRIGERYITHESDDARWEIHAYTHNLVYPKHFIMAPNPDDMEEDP

[3] = molecular target: Vascular endothelial growth factor receptor 1 (Homo sapiens) (UniProt P17948); assay: Inhibition of FLT1/VEGFR1(unknown origin) at 50 nM by Z'LYTE screening method relative to control
Vascular endothelial growth factor receptor 1 (Homo sapiens), sequence (P17948 whole entry): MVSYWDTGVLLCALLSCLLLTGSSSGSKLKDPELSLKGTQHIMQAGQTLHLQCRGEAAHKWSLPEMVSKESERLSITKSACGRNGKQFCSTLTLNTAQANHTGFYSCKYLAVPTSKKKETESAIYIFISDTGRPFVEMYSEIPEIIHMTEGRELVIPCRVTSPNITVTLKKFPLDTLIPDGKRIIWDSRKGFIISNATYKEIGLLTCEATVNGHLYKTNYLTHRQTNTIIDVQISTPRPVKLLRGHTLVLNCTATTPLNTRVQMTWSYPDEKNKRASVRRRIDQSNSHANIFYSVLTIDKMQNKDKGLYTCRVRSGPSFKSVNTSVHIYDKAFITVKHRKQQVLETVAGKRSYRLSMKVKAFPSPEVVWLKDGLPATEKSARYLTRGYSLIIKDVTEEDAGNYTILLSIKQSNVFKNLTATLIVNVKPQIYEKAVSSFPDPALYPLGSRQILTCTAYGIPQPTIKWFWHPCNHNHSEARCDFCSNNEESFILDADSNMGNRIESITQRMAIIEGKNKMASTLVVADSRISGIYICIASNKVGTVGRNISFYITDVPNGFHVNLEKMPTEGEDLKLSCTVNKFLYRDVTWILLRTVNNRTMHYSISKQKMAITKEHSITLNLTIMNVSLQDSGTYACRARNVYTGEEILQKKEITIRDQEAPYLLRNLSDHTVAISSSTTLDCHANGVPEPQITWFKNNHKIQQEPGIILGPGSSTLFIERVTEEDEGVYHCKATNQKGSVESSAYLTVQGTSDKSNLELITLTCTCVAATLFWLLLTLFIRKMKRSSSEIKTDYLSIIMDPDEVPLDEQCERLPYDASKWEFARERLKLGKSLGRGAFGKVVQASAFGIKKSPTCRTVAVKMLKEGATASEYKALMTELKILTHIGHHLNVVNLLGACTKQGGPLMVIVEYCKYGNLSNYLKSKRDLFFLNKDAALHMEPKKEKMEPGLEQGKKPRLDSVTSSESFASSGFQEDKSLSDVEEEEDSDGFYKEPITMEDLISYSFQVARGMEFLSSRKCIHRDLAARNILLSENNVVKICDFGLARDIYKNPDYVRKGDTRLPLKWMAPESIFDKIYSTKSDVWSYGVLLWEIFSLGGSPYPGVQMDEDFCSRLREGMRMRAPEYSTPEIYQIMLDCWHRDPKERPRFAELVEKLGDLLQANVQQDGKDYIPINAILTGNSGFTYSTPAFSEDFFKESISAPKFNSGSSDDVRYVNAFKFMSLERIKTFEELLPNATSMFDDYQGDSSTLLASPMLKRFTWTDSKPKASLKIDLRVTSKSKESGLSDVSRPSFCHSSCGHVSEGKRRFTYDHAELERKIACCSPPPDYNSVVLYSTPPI

[4] = molecular target: Proto-oncogene tyrosine-protein kinase receptor Ret (Homo sapiens) (UniProt P07949); assay: Inhibition of RET (unknown origin) at 50 nM by Z'LYTE screening method relative to control
Proto-oncogene tyrosine-protein kinase receptor Ret (Homo sapiens), sequence (P07949 whole entry): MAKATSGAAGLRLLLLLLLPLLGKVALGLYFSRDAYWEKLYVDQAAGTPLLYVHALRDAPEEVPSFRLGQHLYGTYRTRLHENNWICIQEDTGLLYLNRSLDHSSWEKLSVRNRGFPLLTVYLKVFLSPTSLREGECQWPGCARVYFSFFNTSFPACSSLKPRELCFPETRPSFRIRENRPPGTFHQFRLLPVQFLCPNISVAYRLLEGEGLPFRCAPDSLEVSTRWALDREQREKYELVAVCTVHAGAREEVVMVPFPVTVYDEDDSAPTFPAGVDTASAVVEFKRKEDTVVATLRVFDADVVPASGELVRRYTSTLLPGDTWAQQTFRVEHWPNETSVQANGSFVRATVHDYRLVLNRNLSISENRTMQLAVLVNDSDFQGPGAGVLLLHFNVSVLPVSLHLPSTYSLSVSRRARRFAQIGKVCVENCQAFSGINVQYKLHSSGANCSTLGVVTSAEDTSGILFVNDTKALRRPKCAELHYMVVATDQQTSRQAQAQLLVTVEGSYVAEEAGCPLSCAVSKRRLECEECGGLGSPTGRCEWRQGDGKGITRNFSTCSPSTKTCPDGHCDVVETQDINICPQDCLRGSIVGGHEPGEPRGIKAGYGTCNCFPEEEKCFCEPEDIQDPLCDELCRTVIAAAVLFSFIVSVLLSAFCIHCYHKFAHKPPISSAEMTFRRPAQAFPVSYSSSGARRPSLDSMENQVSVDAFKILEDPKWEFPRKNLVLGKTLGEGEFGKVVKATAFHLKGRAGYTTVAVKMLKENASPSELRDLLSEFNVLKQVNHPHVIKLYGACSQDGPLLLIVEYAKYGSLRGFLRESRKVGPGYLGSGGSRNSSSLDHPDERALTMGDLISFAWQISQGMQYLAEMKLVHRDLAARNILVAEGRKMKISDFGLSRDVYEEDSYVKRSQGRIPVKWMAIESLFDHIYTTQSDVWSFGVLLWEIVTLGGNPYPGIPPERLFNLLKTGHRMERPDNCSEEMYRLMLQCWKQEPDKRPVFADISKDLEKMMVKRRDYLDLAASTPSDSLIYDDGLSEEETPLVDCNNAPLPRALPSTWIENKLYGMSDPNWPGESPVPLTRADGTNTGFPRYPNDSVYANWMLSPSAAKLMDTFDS

[5] = molecular target: Dual specificity mitogen-activated protein kinase kinase 1 (Homo sapiens) (UniProt Q02750); assay: Inhibition of MAP2K1 (unknown origin) at 50 nM by Z'LYTE screening method relative to control
Dual specificity mitogen-activated protein kinase kinase 1 (Homo sapiens), sequence (Q02750 whole entry): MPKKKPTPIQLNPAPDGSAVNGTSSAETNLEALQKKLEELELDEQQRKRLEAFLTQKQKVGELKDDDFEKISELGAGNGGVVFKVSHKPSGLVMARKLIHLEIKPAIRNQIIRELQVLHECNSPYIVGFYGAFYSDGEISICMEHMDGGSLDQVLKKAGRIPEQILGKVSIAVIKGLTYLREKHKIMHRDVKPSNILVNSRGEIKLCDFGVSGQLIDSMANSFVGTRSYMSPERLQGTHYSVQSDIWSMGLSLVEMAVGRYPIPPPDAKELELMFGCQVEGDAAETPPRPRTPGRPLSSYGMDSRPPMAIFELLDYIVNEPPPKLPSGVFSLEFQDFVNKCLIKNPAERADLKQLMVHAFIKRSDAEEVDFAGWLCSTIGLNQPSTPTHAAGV

[6] = molecular target: T2, Serine/threonine-protein kinase D1 (Homo sapiens) (UniProt Q15139); assay: Inhibition of PKCmu (unknown origin) at 50 nM by Z'LYTE screening method relative to control
T2 sequence (whole entry): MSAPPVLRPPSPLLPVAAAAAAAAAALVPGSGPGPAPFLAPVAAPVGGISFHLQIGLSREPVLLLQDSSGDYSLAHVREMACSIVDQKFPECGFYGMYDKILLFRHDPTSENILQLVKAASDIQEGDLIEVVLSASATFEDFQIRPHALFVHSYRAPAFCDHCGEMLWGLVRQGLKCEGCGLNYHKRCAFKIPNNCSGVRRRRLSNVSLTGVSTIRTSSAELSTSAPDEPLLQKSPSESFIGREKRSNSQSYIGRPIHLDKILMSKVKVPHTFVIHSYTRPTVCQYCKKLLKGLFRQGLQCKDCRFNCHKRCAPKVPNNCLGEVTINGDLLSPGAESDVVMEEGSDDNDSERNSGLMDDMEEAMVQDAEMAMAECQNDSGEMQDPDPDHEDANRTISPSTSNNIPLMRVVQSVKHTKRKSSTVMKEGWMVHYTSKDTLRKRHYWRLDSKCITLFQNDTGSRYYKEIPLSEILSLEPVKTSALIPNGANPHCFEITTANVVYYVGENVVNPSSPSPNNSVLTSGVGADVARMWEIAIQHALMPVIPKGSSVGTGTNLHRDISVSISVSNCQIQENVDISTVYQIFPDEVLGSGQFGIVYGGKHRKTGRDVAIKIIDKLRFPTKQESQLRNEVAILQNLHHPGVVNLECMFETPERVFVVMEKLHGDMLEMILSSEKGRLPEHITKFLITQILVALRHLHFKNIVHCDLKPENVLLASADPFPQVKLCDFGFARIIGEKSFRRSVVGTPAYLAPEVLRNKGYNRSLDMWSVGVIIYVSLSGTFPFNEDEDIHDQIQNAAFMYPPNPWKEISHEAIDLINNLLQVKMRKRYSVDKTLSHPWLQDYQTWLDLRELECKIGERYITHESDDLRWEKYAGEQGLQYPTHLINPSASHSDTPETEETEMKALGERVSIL

[7] = molecular target: T3, TGF-beta receptor type-1 (Homo sapiens) (UniProt P36897); assay: Inhibition of TGFBR1 (unknown origin) at 50 nM by Z'LYTE screening method relative to control
T3 sequence (whole entry): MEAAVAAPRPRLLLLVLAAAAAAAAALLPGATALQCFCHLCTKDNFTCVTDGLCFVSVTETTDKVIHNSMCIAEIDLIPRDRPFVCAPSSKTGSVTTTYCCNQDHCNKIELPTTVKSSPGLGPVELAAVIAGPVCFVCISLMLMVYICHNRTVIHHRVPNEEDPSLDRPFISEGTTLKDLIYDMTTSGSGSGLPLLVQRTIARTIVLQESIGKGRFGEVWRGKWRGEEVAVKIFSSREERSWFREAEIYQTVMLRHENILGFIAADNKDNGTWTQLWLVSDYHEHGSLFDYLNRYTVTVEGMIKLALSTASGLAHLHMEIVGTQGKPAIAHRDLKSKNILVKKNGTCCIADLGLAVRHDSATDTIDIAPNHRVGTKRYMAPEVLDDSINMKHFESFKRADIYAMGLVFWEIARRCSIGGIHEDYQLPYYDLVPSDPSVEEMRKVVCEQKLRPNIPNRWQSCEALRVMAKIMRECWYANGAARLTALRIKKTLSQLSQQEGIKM

[8] = molecular target: Tyrosine-protein kinase JAK2 (Homo sapiens) (UniProt O60674); assay: Inhibition of JAK2 (unknown origin) at 50 nM by Z'LYTE screening method relative to control
Tyrosine-protein kinase JAK2 (Homo sapiens), sequence (O60674 whole entry): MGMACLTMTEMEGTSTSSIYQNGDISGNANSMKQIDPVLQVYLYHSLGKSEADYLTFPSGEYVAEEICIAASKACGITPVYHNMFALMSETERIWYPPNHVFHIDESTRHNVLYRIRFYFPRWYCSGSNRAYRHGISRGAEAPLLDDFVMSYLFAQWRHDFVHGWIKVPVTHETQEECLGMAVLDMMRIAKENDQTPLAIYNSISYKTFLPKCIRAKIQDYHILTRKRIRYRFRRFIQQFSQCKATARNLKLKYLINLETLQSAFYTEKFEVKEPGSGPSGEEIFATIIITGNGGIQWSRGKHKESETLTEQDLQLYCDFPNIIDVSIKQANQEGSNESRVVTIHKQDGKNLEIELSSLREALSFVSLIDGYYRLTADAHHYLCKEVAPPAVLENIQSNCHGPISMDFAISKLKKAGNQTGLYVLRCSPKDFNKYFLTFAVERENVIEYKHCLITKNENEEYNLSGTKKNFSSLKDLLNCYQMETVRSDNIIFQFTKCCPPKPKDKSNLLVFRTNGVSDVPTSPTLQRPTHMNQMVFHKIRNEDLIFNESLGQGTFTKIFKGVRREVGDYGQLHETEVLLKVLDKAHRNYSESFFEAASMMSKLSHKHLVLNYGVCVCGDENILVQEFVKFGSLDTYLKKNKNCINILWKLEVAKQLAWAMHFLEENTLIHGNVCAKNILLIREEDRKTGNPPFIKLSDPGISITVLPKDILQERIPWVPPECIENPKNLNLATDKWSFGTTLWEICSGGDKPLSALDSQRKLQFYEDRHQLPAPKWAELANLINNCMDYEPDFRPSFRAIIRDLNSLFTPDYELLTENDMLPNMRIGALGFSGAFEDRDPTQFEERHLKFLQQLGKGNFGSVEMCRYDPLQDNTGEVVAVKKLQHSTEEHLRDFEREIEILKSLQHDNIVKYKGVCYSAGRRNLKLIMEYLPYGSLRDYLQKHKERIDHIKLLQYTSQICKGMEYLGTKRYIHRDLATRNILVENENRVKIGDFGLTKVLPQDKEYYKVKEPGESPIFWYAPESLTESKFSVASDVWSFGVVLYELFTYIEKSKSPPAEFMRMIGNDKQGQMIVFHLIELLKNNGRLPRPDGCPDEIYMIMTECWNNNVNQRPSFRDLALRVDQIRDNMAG

Protein kinase C beta type (Homo sapiens), sequence (P05771 2-671 limits assumed): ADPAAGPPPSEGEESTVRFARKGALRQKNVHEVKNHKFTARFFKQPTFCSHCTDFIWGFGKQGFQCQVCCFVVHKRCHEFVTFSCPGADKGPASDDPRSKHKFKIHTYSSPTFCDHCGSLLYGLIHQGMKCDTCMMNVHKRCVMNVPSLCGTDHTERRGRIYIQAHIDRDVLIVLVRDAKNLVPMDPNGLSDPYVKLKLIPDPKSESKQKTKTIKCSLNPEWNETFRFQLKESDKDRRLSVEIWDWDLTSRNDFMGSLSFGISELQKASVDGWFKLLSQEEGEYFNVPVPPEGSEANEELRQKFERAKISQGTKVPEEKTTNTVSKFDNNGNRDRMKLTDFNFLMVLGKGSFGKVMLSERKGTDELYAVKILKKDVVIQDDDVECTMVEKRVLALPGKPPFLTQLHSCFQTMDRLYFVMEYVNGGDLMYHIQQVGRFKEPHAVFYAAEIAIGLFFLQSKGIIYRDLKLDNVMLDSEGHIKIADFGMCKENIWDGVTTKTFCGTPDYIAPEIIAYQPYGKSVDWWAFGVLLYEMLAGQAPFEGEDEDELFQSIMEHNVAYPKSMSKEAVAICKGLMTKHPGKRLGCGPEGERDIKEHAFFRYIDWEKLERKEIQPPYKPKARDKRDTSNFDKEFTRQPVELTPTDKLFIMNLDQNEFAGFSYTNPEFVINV

Compound	inhibition [1] [%]	inhibition [2] [%]	inhibition [3] [%]	inhibition [4] [%]	inhibition [5] [%]	inhibition [6] [%]	inhibition [7] [%]	inhibition [8] [%]
CCN(CC)CCCC(C)Nc1nc(-n2[se]c3ccccc3c2=O)nc2[nH]cnc12 (stereo not drawn)	12	11	1	1	3	4		
CCN(CC)CCCC(C)Nc1nc(N2Cc3ccccc3C2=O)nc2[nH]cnc12 (stereo not drawn)	25	2	2	2	5	0		
C[C@@H]1[C@H]2C[C@@H](C[C@H]1Nc1nc(-n3[se]c4ccccc4c3=O)nc3[nH]cnc13)C2(C)C	5	1	1	2	5	1		
O=c1c2ccccc2[se]n1-c1nc(N[C@H]2CCOC2)c2nc[nH]c2n1	7	3	0	7	2	0		
O=C1c2ccccc2CN1c1nc(NC2CCCCC2)c2nc[nH]c2n1	5	0	0	10	4	6	3	15
O=c1c2ccccc2[se]n1-c1nc(NC2CCCCC2)c2nc[nH]c2n1	62	0	2	13	6	5	11	17
CCCNc1nc(-n2[se]c3ccccc3c2=O)nc2[nH]cnc12	95	0	0	0	2	0		
O=C1c2ccccc2CN1c1nc(N[C@H]2CC[Se]C2)c2nc[nH]c2n1	9	3	1	2	3	1		
O=c1c2ccccc2[se]n1-c1nc(N[C@H]2CC[Se]C2)c2nc[nH]c2n1	8	6	0	7	10	7	0	18
O=c1c2ccccc2[se]n1-c1nc(Nc2ccccc2)c2nc[nH]c2n1	28	0	1	4	0	3		
O=C1c2ccccc2CN1c1nc(NC2CCCC2)c2nc[nH]c2n1	9	4	1	2	1	1		
O=c1c2ccccc2[se]n1-c1nc(N[C@@H]2C[C@H]3CC[C@@H]2C3)c2nc[nH]c2n1	62	1	1	6	2	2		
